In ChEMBL document CHEMBL1914384, “Design, synthesis, and structure-activity relationship studies of highly potent novel benzoxazinyl-oxazolidinone antibacterial agents” (J Med Chem, 2011):
In brackets after ≈: the same amount, converted by molar mass.

Tests used:
Format in all cases: functional
Staphylococcus aureus [1] = test: Antibacterial activity against Staphylococcus aureus ATCC 29213 after 16 hrs by agar dilution method; settings: ATCC 29213, 16 h
Staphylococcus aureus [2] = test: Antibacterial activity against methicillin-resistant Staphylococcus aureus after 16 hrs by agar dilution method
[3] = system: Staphylococcus epidermidis; test: Antibacterial activity against methicillin-resistant Staphylococcus epidermidis after 16 hrs by agar dilution method
Streptococcus pneumoniae = test: Antibacterial activity against penicillin-resistant Streptococcus pneumoniae after 16 hrs by agar dilution method
Enterococcus faecalis = test: Antibacterial activity against Enterococcus faecalis after 16 hrs by agar dilution method

SMILES	MIC (Staphylococcus aureus [1]) [µg/mL]	MIC (Staphylococcus aureus [2]) [µg/mL]	MIC [3] [µg/mL]	MIC (Streptococcus pneumoniae) [µg/mL]	MIC (Enterococcus faecalis) [µg/mL]
CC(=O)NC[C@@H]1OC(=O)N2c3ccc(-c4ccc(NC(C)=O)nc4)cc3OC[C@@H]12	0.5 (≈ 1.26 µM)	0.5 (≈ 1.26 µM)	1 (≈ 2.52 µM)	1 (≈ 2.52 µM)	1 (≈ 2.52 µM)
CC(=O)NC[C@@H]1OC(=O)N2c3ccc(-c4cncc(C(C)=O)c4)cc3OC[C@@H]12	1 (≈ 2.62 µM)	1 (≈ 2.62 µM)	0.5 (≈ 1.31 µM)	1 (≈ 2.62 µM)	1 (≈ 2.62 µM)
CC(=O)NC[C@@H]1OC(=O)N2c3ccc(-c4ccc(C#N)cn4)cc3OC[C@@H]12	2 (≈ 5.49 µM)	1 (≈ 2.74 µM)	1 (≈ 2.74 µM)	2 (≈ 5.49 µM)	2 (≈ 5.49 µM)
CC(=O)NC[C@@H]1OC(=O)N2c3ccc(-c4ccc(C(F)(F)F)nc4)cc3OC[C@@H]12	2 (≈ 4.91 µM)	1 (≈ 2.45 µM)	1 (≈ 2.45 µM)	2 (≈ 4.91 µM)	2 (≈ 4.91 µM)
CC(=O)NC[C@@H]1OC(=O)N2c3ccc(-c4ccccc4)cc3OC[C@@H]12	0.5 (≈ 1.48 µM)	0.5 (≈ 1.48 µM)	1 (≈ 2.96 µM)	0.5 (≈ 1.48 µM)	2 (≈ 5.91 µM)
CC(=O)NC[C@@H]1OC(=O)N2c3ccc(-c4ccc(-n5ccnc5)nc4)cc3OC[C@@H]12	0.5 (≈ 1.23 µM)	0.5 (≈ 1.23 µM)	0.5 (≈ 1.23 µM)	0.5 (≈ 1.23 µM)	1 (≈ 2.47 µM)
CC(=O)NC[C@@H]1OC(=O)N2c3ccc(-c4ccc(C(C)=O)cn4)cc3OC[C@@H]12	2 (≈ 5.24 µM)	2 (≈ 5.24 µM)	2 (≈ 5.24 µM)	2 (≈ 5.24 µM)	4 (≈ 10.5 µM)
CC(=O)NC[C@@H]1OC(=O)N2c3ccc(-c4ccc(-c5nnn(C)n5)nc4)cc3OC[C@@H]12	0.5 (≈ 1.19 µM)	0.5 (≈ 1.19 µM)	0.5 (≈ 1.19 µM)	0.5 (≈ 1.19 µM)	1 (≈ 2.37 µM)
CC(=O)NC[C@@H]1OC(=O)N2c3ccc(N4CCN(Cc5ccoc5)CC4)cc3OC[C@@H]12	16 (≈ 37.5 µM)	> 8	8 (≈ 18.8 µM)	> 16	> 16
CC(=O)NC[C@@H]1OC(=O)N2c3ccc(-c4cccs4)cc3OC[C@@H]12	1 (≈ 2.9 µM)	1 (≈ 2.9 µM)	1 (≈ 2.9 µM)	1 (≈ 2.9 µM)	4 (≈ 11.6 µM)
CC(=O)NC[C@@H]1OC(=O)N2c3cc(F)c(-c4ccncc4)cc3OC[C@@H]12	2 (≈ 5.6 µM)	4 (≈ 11.2 µM)	2 (≈ 5.6 µM)	8 (≈ 22.4 µM)	8 (≈ 22.4 µM)
CC(=O)NC[C@@H]1OC(=O)N2c3ccc(-c4cccnc4)cc3OC[C@@H]12	0.5 (≈ 1.47 µM)	0.5 (≈ 1.47 µM)	0.5 (≈ 1.47 µM)	0.5 (≈ 1.47 µM)	1 (≈ 2.95 µM)
CC(=O)NC[C@@H]1OC(=O)N2c3ccc(-c4cc(C#N)ccn4)cc3OC[C@@H]12	0.5 (≈ 1.37 µM)	0.5 (≈ 1.37 µM)	0.25 (≈ 0.686 µM)	0.25 (≈ 0.686 µM)	1 (≈ 2.74 µM)
CC(=O)NC[C@@H]1OC(=O)N2c3ccc(N4CCN(Cc5ccco5)CC4)cc3OC[C@@H]12	> 16	16 (≈ 37.5 µM)	> 16	> 16	> 16
CC(=O)NC[C@@H]1OC(=O)N2c3ccc(-c4ccc(-n5cncn5)nc4)cc3OC[C@@H]12	0.5 (≈ 1.23 µM)	1 (≈ 2.46 µM)	1 (≈ 2.46 µM)	2 (≈ 4.92 µM)	2 (≈ 4.92 µM)
CC(=O)NC[C@@H]1OC(=O)N2c3ccc(N4CCN(Cc5ccncc5)CC4)cc3OC[C@@H]12	16 (≈ 36.6 µM)	> 16	> 16	> 16	> 16
CC(=O)NC[C@@H]1OC(=O)N2c3ccc(N4CCN(Cc5ccc([N+](=O)[O-])o5)CC4)cc3OC[C@@H]12	4 (≈ 8.48 µM)	4 (≈ 8.48 µM)	2 (≈ 4.24 µM)	> 8	> 16
CC(=O)NC[C@@H]1OC(=O)N2c3ccc(-c4cncnc4)cc3OC[C@@H]12	0.25 (≈ 0.735 µM)	0.5 (≈ 1.47 µM)	0.5 (≈ 1.47 µM)	1 (≈ 2.94 µM)	1 (≈ 2.94 µM)

SMILES	MIC (Staphylococcus aureus [1]) [µg/mL]	MIC (Staphylococcus aureus [2]) [µg/mL]	MIC [3] [µg/mL]	MIC (Streptococcus pneumoniae) [µg/mL]	MIC (Enterococcus faecalis) [µg/mL]
CC(=O)NC[C@@H]1OC(=O)N2c3ccc(-c4ccc(CC#N)nc4)cc3OC[C@@H]12	0.25 (≈ 0.661 µM)	0.25 (≈ 0.661 µM)	0.25 (≈ 0.661 µM)	0.5 (≈ 1.32 µM)	0.5 (≈ 1.32 µM)
CC(=O)NC[C@@H]1OC(=O)N2c3ccc(-c4cccc(N)c4)cc3OC[C@@H]12	0.5 (≈ 1.41 µM)	1 (≈ 2.83 µM)	1 (≈ 2.83 µM)	0.5 (≈ 1.41 µM)	1 (≈ 2.83 µM)
CC(=O)NC[C@@H]1OC(=O)N2c3ccc(-c4cnc(N)nc4)cc3OC[C@@H]12	1 (≈ 2.81 µM)	1 (≈ 2.81 µM)	1 (≈ 2.81 µM)	1 (≈ 2.81 µM)	2 (≈ 5.63 µM)
CC(=O)NC[C@@H]1OC(=O)N2c3ccc(-c4ccc(C(C)=O)cc4)cc3OC[C@@H]12	1 (≈ 2.63 µM)	1 (≈ 2.63 µM)	0.5 (≈ 1.31 µM)	2 (≈ 5.26 µM)	1 (≈ 2.63 µM)
CC(=O)NC[C@@H]1OC(=O)N2c3ccc(N4CCOCC4)cc3OC[C@@H]12	4 (≈ 11.5 µM)	4 (≈ 11.5 µM)	4 (≈ 11.5 µM)	8 (≈ 23 µM)	8 (≈ 23 µM)
CC(=O)NC[C@@H]1OC(=O)N2c3ccc(-c4ccc(N5CCOC5=O)cn4)cc3OC[C@@H]12	1 (≈ 2.36 µM)	1 (≈ 2.36 µM)	1 (≈ 2.36 µM)	1 (≈ 2.36 µM)	2 (≈ 4.71 µM)
CC(=O)NC[C@@H]1OC(=O)N2c3ccc(-c4ccsc4)cc3OC[C@@H]12	2 (≈ 5.81 µM)	2 (≈ 5.81 µM)	2 (≈ 5.81 µM)	2 (≈ 5.81 µM)	4 (≈ 11.6 µM)
COc1ncc(-c2ccc3c(c2)OC[C@H]2[C@H](CNC(C)=O)OC(=O)N32)c(OC)n1	1 (≈ 2.5 µM)	1 (≈ 2.5 µM)	1 (≈ 2.5 µM)	1 (≈ 2.5 µM)	1 (≈ 2.5 µM)
CC(=O)NC[C@@H]1OC(=O)N2c3ccc(-c4cccc([N+](=O)[O-])c4)cc3OC[C@@H]12	0.5 (≈ 1.3 µM)	0.5 (≈ 1.3 µM)	0.5 (≈ 1.3 µM)	0.5 (≈ 1.3 µM)	2 (≈ 5.22 µM)
CC(=O)NC[C@@H]1OC(=O)N2c3cc(F)c(-c4cccnc4)cc3OC[C@@H]12	2 (≈ 5.6 µM)	1 (≈ 2.8 µM)	1 (≈ 2.8 µM)	2 (≈ 5.6 µM)	2 (≈ 5.6 µM)
CC(=O)NC[C@@H]1OC(=O)N2c3ccc(-c4ccc(C#N)nc4)cc3OC[C@H]12	> 16	> 16	> 16	> 16	> 16
CC(=O)NC[C@@H]1OC(=O)N2c3cc(F)c(-c4ccc(C#N)nc4)cc3OC[C@@H]12	2 (≈ 5.23 µM)	1 (≈ 2.62 µM)	1 (≈ 2.62 µM)	2 (≈ 5.23 µM)	2 (≈ 5.23 µM)
CC(=O)NC[C@@H]1OC(=O)N2c3ccc(N4CCN(Cc5cccc([N+](=O)[O-])c5)CC4)cc3OC[C@@H]12	> 16	> 16	> 16	> 16	> 16
CC(=O)NC[C@@H]1OC(=O)N2c3ccc(N4CCN(Cc5ccccc5[N+](=O)[O-])CC4)cc3OC[C@@H]12	8 (≈ 16.6 µM)	8 (≈ 16.6 µM)	8 (≈ 16.6 µM)	> 16	> 16
CC(=O)NC[C@@H]1OC(=O)N2c3ccc(N4CCN(Cc5ccccn5)CC4)cc3OC[C@@H]12	16 (≈ 36.6 µM)	> 16	> 16	> 16	> 16
CC(=O)NC[C@@H]1OC(=O)N2c3ccc(-c4ccc(-c5noc(C)n5)nc4)cc3OC[C@@H]12	0.25 (≈ 0.593 µM)	0.5 (≈ 1.19 µM)	0.5 (≈ 1.19 µM)	1 (≈ 2.37 µM)	1 (≈ 2.37 µM)
CC(=O)NC[C@@H]1OC(=O)N2c3ccc(-c4ccncc4)cc3OC[C@@H]12	0.5 (≈ 1.47 µM)	0.5 (≈ 1.47 µM)	1 (≈ 2.95 µM)	1 (≈ 2.95 µM)	1 (≈ 2.95 µM)
CC(=O)NC[C@@H]1OC(=O)N2c3ccc(-c4cncc(N5CCOC5=O)c4)cc3OC[C@@H]12	1 (≈ 2.36 µM)	0.5 (≈ 1.18 µM)	0.5 (≈ 1.18 µM)	1 (≈ 2.36 µM)	0.5 (≈ 1.18 µM)
